Laboratory results taken from US20240358693A1, “METHODS OF TREATING PAIN” (Aisa Pharma, Inc., priority 2023, published 2024).

Tested on: participants with SSc-RP
Experiment: Scleroderma Health Assessment Questionnaire (SHAQ): disability indices and visual analog scales
Format: in vivo, human
Excerpt: The standard, validated, patient reported outcome measures tool for SSc patients, the Scleroderma Health Assessment Questionnaire (SHAQ), will be used to assess the participant qualify of life. Details are attached in the Appendix. The participant quality of life will be scored, and a disability index calculated for each questionnaire completed by the patient at Screening and each in-clinic visit. The absolute change in participant quality of life from baseline to the end of each dosing period will be calculated similar to frequency data as before.
The SHAQ includes a Raynaud's VAS, which will be reported at screening and each in-clinic visit. The absolute change in Raynaud-VAS, assessed by the participants response to the SHAQ question ‘In the past 7 days, how much have your Raynaud's interfered with your daily activities?’ at baseline and the end of each dosing period will be calculated similar to frequency data as before.
The SHAQ is used to calculate a Disability Index to assess the participant qualify of life. The eight categories assessed by the Disability Index are 1) dressing and grooming, 2) arising, 3) eating, 4) walking, 5) hygiene, 6) reach, 7) grip, and 8) common daily activities. For each of these categories, patients report the amount of difficulty they have in performing two or three specific activities.
There are four possible responses for the Disability Index questions: • Without any difficulty=0 • With some difficulty=1 • With much difficulty=2 • Unable to do=3. • The highest score reported by the patient for any component question of the eight categories determines the score for that category. • If a component question is left blank or the response is too ambiguous to assign a score, then the score for that category is determined by the remaining completed question(s). • If all component questions are blank or if more than one answer is given, then follow up with the respondent is required. • If the respondent's mark is between the response columns, then move it to the closest one. If it's directly between the two, move it to the higher one.
Each of the disability items on the SHAQ has a companion aids/devices variable that is used to record what type(s) of assistance, if any, the participant uses for his/her usual activities. These variables (see below) are coded as follows: • 0=No assistance is needed. • 1=A special device is used by the patient in his/her usual activities. • 2=The patient usually needs help from another person. • 3=The patient usually needs BOTH a special device AND help from another person.
The scoring variables and scoring rules permit the computation of two disability indices, the Standard Disability Index and the Alternative Disability Index.
This question results in a new set of category scores that are computed by adjusting the score for each category, if necessary, based on the patient's use of an aid or device or assistance for that category. If either devices and/or help from another person are checked for a category, the score is set to “2”, unless the score is already “3” (i.e., scores of “0” or “1” are increased to “2”). For example, if the highest score for the dressing category is “1”, and the patient says they use a device for dressing, the computed category score would be “2”. The sum of the computed categories scores is then calculated and divided by the number of categories answered. This gives a score in the 0 to 3 range.
The aid and device variables are not used to calculate the alternative disability index; it is calculated by adding the scores for each of the categories and dividing by the number of categories answered. This gives a score in the 0 to 3 range.
The standard, validated, patient reported outcome measures tool for SSc patients, the SHAQ, was collected at the time points specified in the study schedules (FIG. 2 and FIGS. 4A and 4B) to assess the participant's quality of life. The SHAQ included a Raynaud's VAS that will also be reported separately.

[1] = Pooled Cilnidipine (10 mg or 20 mg) (N = 7), n 6
[2] = Pooled Cilnidipine (N = 6), Day 12, Modified ITT, SSc patients, Part A
[3] = Pooled Cilnidipine (N = 7), sensitivity analysis, Modified ITT, Part A

## COCCOC(=O)C1=C(C)NC(C)=C(C(=O)OC/C=C/c2ccccc2)C1c1cccc([N+](=O)[O-])c1 (centres unmarked) [Cilnidipine, cilnidipine]
Pooled Cilnidipine (10 mg or 20 mg) (N = 7)
  SHAQ patient reported disease severity, In-Clinic Visit (Day 12), Median: 1.200
[1]
  SHAQ patient reported disease severity, Percent Change from Baseline, Mean: −59.80%
  SHAQ patient reported disease severity, Percent Change from Baseline, Median: −55.86%
[2]
  SHAQ Alternative Disability Index: Change from Baseline, Mean: 0.000
  SHAQ Alternative Disability Index: Change from Baseline, Median: −0.063
  SHAQ Alternative Disability Index: In-Clinic Visit (Day 12), Mean: 0.438
  SHAQ Alternative Disability Index: In-Clinic Visit (Day 12), Median: 0.188
  SHAQ Alternative Disability Index: Percent Change from Baseline, Mean: −12.90%
  SHAQ Alternative Disability Index: Percent Change from Baseline, Median: −22.22%
  SHAQ Standard Disability Index: Change from Baseline, Mean: −0.063
  SHAQ Standard Disability Index: Change from Baseline, Median: 0.000
  SHAQ Standard Disability Index: In-Clinic Visit (Day 12), Mean: 0.500
  SHAQ Standard Disability Index: In-Clinic Visit (Day 12), Median: 0.188
  SHAQ Standard Disability Index: Percent Change from Baseline, Mean: −25.00%
  SHAQ Standard Disability Index: Percent Change from Baseline, Median: −16.67%
  SHAQ Visual Analogue Scale - Breathing Problems: Change from Baseline, Mean: −0.617
  SHAQ Visual Analogue Scale - Breathing Problems: Change from Baseline, Median: −0.400
  SHAQ Visual Analogue Scale - Breathing Problems: In-Clinic Visit (Day 12), Mean: 1.200
  SHAQ Visual Analogue Scale - Breathing Problems: In-Clinic Visit (Day 12), Median: 0.200
  SHAQ Visual Analogue Scale - Breathing Problems: Percent Change from Baseline, Mean: −8.17%
  SHAQ Visual Analogue Scale - Breathing Problems: Percent Change from Baseline, Median: −41.33%
  SHAQ Visual Analogue Scale - Finger Ulcers: Change from Baseline, Mean: −0.750
  SHAQ Visual Analogue Scale - Finger Ulcers: Change from Baseline, Median: −0.350
  SHAQ Visual Analogue Scale - Finger Ulcers: In-Clinic Visit (Day 12), Mean: 0.617
  SHAQ Visual Analogue Scale - Finger Ulcers: In-Clinic Visit (Day 12), Median: 0.350
  SHAQ Visual Analogue Scale - Finger Ulcers: Percent Change from Baseline, Mean: −17.08%
  SHAQ Visual Analogue Scale - Finger Ulcers: Percent Change from Baseline, Median: −50.82%
  SHAQ Visual Analogue Scale - Intestinal Problems: Change from Baseline, Mean: −1.083
  SHAQ Visual Analogue Scale - Intestinal Problems: Change from Baseline, Median: 0.000
  SHAQ Visual Analogue Scale - Intestinal Problems: In-Clinic Visit (Day 12), Mean: 1.300
  SHAQ Visual Analogue Scale - Intestinal Problems: In-Clinic Visit (Day 12), Median: 0.950
  SHAQ Visual Analogue Scale - Intestinal Problems: Percent Change from Baseline, Mean: −15.53%
  SHAQ Visual Analogue Scale - Intestinal Problems: Percent Change from Baseline, Median: −7.06%
  SHAQ Visual Analogue Scale - Overall Disease Severity: Change from Baseline, Mean: −1.350
  SHAQ Visual Analogue Scale - Overall Disease Severity: Change from Baseline, Median: −1.550
  SHAQ Visual Analogue Scale - Overall Disease Severity: In-Clinic Visit (Day 12), Mean: 1.733
  SHAQ Visual Analogue Scale - Overall Disease Severity: In-Clinic Visit (Day 12), Median: 1.300
  SHAQ Visual Analogue Scale - Overall Disease Severity: Percent Change from Baseline, Mean: −51.76%
  SHAQ Visual Analogue Scale - Overall Disease Severity: Percent Change from Baseline, Median: −51.72%
  SHAQ Visual Analogue Scale - Pain: Change from Baseline, Mean: −0.500
  SHAQ Visual Analogue Scale - Pain: Change from Baseline, Median: −0.250
  SHAQ Visual Analogue Scale - Pain: In-Clinic Visit (Day 12), Mean: 1.617
  SHAQ Visual Analogue Scale - Pain: In-Clinic Visit (Day 12), Median: 1.400
  SHAQ Visual Analogue Scale - Pain: Percent Change from Baseline, Mean: −29.23%
  SHAQ Visual Analogue Scale - Pain: Percent Change from Baseline, Median: −48.78%
  SHAQ Visual Analogue Scale - Raynaud's: Change from Baseline, Mean: −0.550
  SHAQ Visual Analogue Scale - Raynaud's: Change from Baseline, Median: −0.600
  SHAQ Visual Analogue Scale - Raynaud's: In-Clinic Visit (Day 12), Mean: 1.667
  SHAQ Visual Analogue Scale - Raynaud's: In-Clinic Visit (Day 12), Median: 1.250
  SHAQ Visual Analogue Scale - Raynaud's: Percent Change from Baseline, Mean: −18.64%
  SHAQ Visual Analogue Scale - Raynaud's: Percent Change from Baseline, Median: −38.67%
[3]
  SHAQ Standard Disability Index: Baseline, Mean: 0.482
  SHAQ Standard Disability Index: Baseline, Median: 0.375
  SHAQ Standard Disability Index: Change from Baseline, Mean: −0.054
  SHAQ Standard Disability Index: Change from Baseline, Median: 0.000
  SHAQ Standard Disability Index: Day 12, Mean: 0.429
  SHAQ Standard Disability Index: Day 12, Median: 0.125
  SHAQ Standard Disability Index: Percent Change from Baseline, Mean: −25.00%
  SHAQ Standard Disability Index: Percent Change from Baseline, Median: −16.67%
  SHAQ VAS Breathing Problems: Baseline, Mean: 1.557
  SHAQ VAS Breathing Problems: Baseline, Median: 0.200
  SHAQ VAS Breathing Problems: Change from Baseline, Mean: −0.529
